Data reported in patent US10172875B2, “Therapeutic combinations comprising anti-FOLR1 immunoconjugates” (ImmunoGen, Inc., priority 2015, dated 2019).
Read-outs that look alike come from different tables or passages of the source.

Tests used:
[1] = system: IGROV-1 cells; test: Cell cycle analysis, IMGN853 and carboplatin (FIG. 9B); type: cell-based; conditions: carboplatin 20 μM, IMGN853 8 nM, alone or combined, 6 hours, then 24 hour drug-free medium
Protocol: Cells were washed, and cell cycle distribution determined following 24 hour culture in drug-free medium.

[2] = system: platinum-sensitive ovarian cancer patient derived xenografts (PDXs); test: IMGN853 and carboplatin, single administration, in platinum-sensitive ovarian cancer PDX (FIG. 9D); type: in vivo, SCID mice; conditions: single administration: IMGN853 2.5 mg/kg and/or carboplatin 80 mg/kg; day 39
Protocol: Data are expressed as mean and standard error of the mean (SEM) for each time point.
To examine whether these in vitro cellular effects translated to improved efficacy in vivo, mice bearing patient-derived xenografts (PDX) obtained from an individual with EOC were treated with IMGN853 and carboplatin, both as single agents and in combination (FIG. 9D). […] Animals received a single administration of IMGN853 (2.5 mg/kg) or carboplatin (80 mg/kg), and each regimen inhibited tumor growth as monotherapy (T/C values of 43% and 20% on day 39, respectively).

[3] = system: OV90 serous ovarian tumor xenografts; test: Antitumor activity of IMGN853, cediranib and combination in OV90 tumor model (Example 9); type: in vivo, SCID mice; conditions: IMGN853 2.5 mg/kg 1× and/or cediranib 1.5 mg/kg qd×5
Description: The term “respond favorably” generally refers to causing a beneficial state in a subject. With respect to cancer treatment, the term refers to providing a therapeutic effect on the subject. Positive therapeutic effects in cancer can be measured in a number of ways (See, W. A. Weber, J. Nucl. Med. 50:1S-10S (2009)). For example, tumor growth inhibition, molecular marker expression, serum marker expression, and molecular imaging techniques can all be used to assess therapeutic efficacy of an anti-cancer therapeutic. Log10 Cell Kill (LCK) can be used to quantify the tumor cell kill. Log10 cell kill (LCK) is calculated with the formula LCK=(T−C)/Td×3.32, where (T−C) (or tumor growth delay (TGD)) is the median time (in days) for the treatment group and control group tumors to reach a predetermined size (tumor-free survivors excluded). Td is the tumor doubling time (estimated from nonlinear exponential curve fit of daily median of control tumor growth), and 3.32 is the number of cell doublings per log of cell growth. The ability to reduce tumor volume may be assessed, for example, by measuring a % T/C value, which is the median tumor volume of treated subjects divided by the median tumor volume of the control subjects. With respect to tumor growth inhibition, according to NCI standards, a T/C≤42% is the minimum level of anti-tumor activity. A T/C<10% is considered a high anti-tumor activity level, with T/C (%)=Median tumor volume of the treated/Median tumor volume of the control×100. A favorable response can be assessed, for example, by increased progression-free survival (PFS), disease-free survival (DFS), or overall survival (OS), complete response (CR), partial response (PR), or, in some cases, stable disease (SD), a decrease in progressive disease (PD), a […] time to progression (TTP), a decrease in CA125 in the case of ovarian cancer, or any combination thereof.

[4] = system: ST088 human epithelial ovarian cancer (EOC) patient-derived tumor xenografts; test: Antitumor activity of IMGN853, bevacizumab, paclitaxel and combinations in ST088 tumor model (Example 6); type: in vivo, SCID mice; conditions: QWx2: IMGN853 5 mg/kg, bevacizumab 5 mg/kg, paclitaxel 10 mg/kg; for T/C: alone or combined; for CR / PR: responders/animals
Protocol: Tumor volumes were measured twice weekly in three dimensions using a caliper.

[5] = system: OV90 serous ovarian tumor xenografts; test: Antitumor activity of IMGN853 (1.25 mg/kg), paclitaxel, bevacizumab and combinations in OV90 tumor model (Example 4); type: in vivo, SCID mice; conditions: single doses: IMGN853 1.25 mg/kg, paclitaxel 10 mg/kg, bevacizumab 5 mg/kg; for T/C: alone or combined; for CR: responders/animals
Protocol: Mice were randomized into groups (n=8 per group) by tumor volume and subsequently dosed on Day 14 post-inoculation. All treatments consisted of single doses (1×).
Tumor volumes were measured one to two times weekly in three dimensions using a caliper. […] Body weights were measured twice per week as an index of toxicity.

[6] = system: platinum-resistant ovarian cancer PDXs; test: IMGN853 with bevacizumab in platinum-resistant ovarian cancer PDX, 102-day study (FIG. 11B); type: in vivo, mice
Description: Tumor growth was monitored out to 102 days. * P=0.011; ** P=0.018; ns, not significant (Wilcoxon test, non-adjusted).

[7] = system: OV-90 xenografts; test: OV-90 tumors harvested 4 days post-dosing: histology, γH2AX, CD31, anti-maytansine (FIGS. 12A-12C); type: in vivo, mice; conditions: IMGN853 2.5 mg/kg and/or bevacizumab 5 mg/kg; day 4
Protocol: Original magnification, 4×; scale bars, 2 mm (for Combination panel, 600 μm).
For each group, representative micrographs from one of three tumors are shown. Original magnification, 20×; scale bars, 200 μm.
Next, as a pharmacodynamic readout, tumor γH2AX levels were measured by immunoblotting (FIG. 12B).
While genotoxic insults are the primary inducers of γH2AX, accumulation of this protein can also occur in response to hypoxia. […] In order to examine treatment-related effects on microvessels, immunohistochemical staining with the endothelial cell marker CD31 was performed (FIG. 12C, upper panel).

[8] = system: OV90 serous ovarian tumor xenografts; test: Antitumor activity of IMGN853 (2.5 mg/kg), bevacizumab and combination in OV90 tumor model (Example 3); type: in vivo, SCID mice; conditions: IMGN853 2.5 mg/kg 1× and/or bevacizumab 5 mg/kg 1×
Description: FIG. 2B depicts the results.

[9] = system: OV90 serous ovarian tumor xenografts; conditions: IMGN853 5 mg/kg 1× and/or bevacizumab 5 mg/kg 1×
Protocol: Mice were randomized into groups (n=6 per group) by tumor volume and subsequently dosed on Day 14 post-inoculation.
Tumor volumes were measured one to two times weekly in three dimensions using a caliper. The tumor volume was expressed in mm^3 using the formula V=Length×Width×Height×½ (Tomayko and Reynolds, Cancer Chemother. Pharmacol. 24:148-54 (1989)) Body weights were measured twice per week as an index of toxicity. Activity was assessed as described in Bissery et al. (1991).

[10] = system: H2110 non-small cell lung cancer (NSCLC) tumor xenografts
Protocol: Mice were randomized into groups (n=6-10 per group) by tumor volume and subsequently dosed on Day 7 post-inoculation. All treatments consisted of single doses (1×).
Tumor volumes were measured one to two times weekly in three dimensions using a caliper. The tumor volume was expressed in mm^3 using the formula V=Length×Width×Height×½ (Tomayko 1989). Body weights were measured twice per week as an index of test agent toxicity. Activity was assessed as described in Bissery et al. (1991).

[11] = system: OV-90 xenografts; test: Fractionated bevacizumab dosing with IMGN853 in OV-90 xenografts (FIG. 11A); type: in vivo, mice; conditions: IMGN853 3 mg/kg; bevacizumab single 5 mg/kg dose or two 2.5 mg/kg doses (QWx2); monotherapy or combination
[12] = system: IGROV-1 ovarian tumor xenografts; test: Antitumor activity of IMGN853, bevacizumab and combination in IGROV-1 tumor model (Example 5); type: in vivo, SCID mice; conditions: IMGN853 5 mg/kg 1× and/or bevacizumab 5 mg/kg 1×
Description: (§1) All treatments consisted of single doses (1×).
FIG. 4 depicts the results.

[13] = system: OV90 ovarian tumor xenografts; test: Antitumor activity of carboplatin doublets and triple-combinations in OV90 tumor model (Example 8); type: in vivo, SCID mice; conditions: single doses: IMGN853 5 mg/kg, carboplatin 100 mg/kg, bevacizumab 5 mg/kg, paclitaxel 10 mg/kg
Description: as §1
FIG. 7 depicts the results.

[14] = system: platinum-sensitive PDX tumors; test: Carboplatin doublets QWx2 in platinum-sensitive PDX (FIG. 9E); type: in vivo, mice; conditions: PLD 4 mg/kg or IMGN853 5 mg/kg
Protocol: The combinatorial benefit conferred by IMGN853/carboplatin treatment was compared with clinically relevant chemotherapeutic combinations in the same PDX model. Tumor-bearing animals received two consecutive weekly doses (QWx2) of carboplatin (80 mg/kg, i.p.) in combination with i.v. paclitaxel (10 mg/kg), PLD (4 mg/kg), or IMGN853 (5 mg/kg). As expected, treatment with the carboplatin-paclitaxel doublet was efficacious in this model of platinum sensitivity (FIG. 9E). […] The higher incidence of CRs was strongly indicative of a better durability of response for the combination, and overall the data further supports the combination of IMGN853 with carboplatin for improving response to platinum therapy in EOC.

[15] = IMGN853 3 mg/kg 1× and/or bevacizumab 5 mg/kg 1×
[16] = IMGN853 3 mg/kg 1× and/or bevacizumab 5 mg/kg 1×, responders/animals

For `N.N.O=C([O-])C1(C(=O)[O-])CCC1.[Pt+2]` [carboplatin, reference compound], the cell cycle distribution [1] was “accumulation of IGROV-1 cells in both the S and G2/M phases” and the T/C [2] was 20%.
In the case of `COc1cc2c(Oc3ccc4[nH]c(C)cc4c3F)ncnc2cc1OCCCN1CCCC1` [cediranib, reference compound], the T/C [3] is reported as 80%, the antitumor activity rating [3] is reported as “inactive” and the LCK ([3]; Log10 cell kill) is reported as 0.1. The PR ([3]; responders/animals) was 0/6 and the “T−C” value ([3]; tumor growth delay) was 4 days.
In the case of `CC(=O)O[C@H]1C(=O)[C@@]2(C)[C@H]([C@H](OC(=O)c3ccccc3)[C@]3(O)C[C@H](OC(=O)[C@H](O)[C@@H](NC(=O)c4ccccc4)c4ccccc4)C(C)=C1C3(C)C)[C@]1(OC(C)=O)CO[C@@H]1C[C@@H]2O` [paclitaxel], the antitumor activity rating [4] is reported as “inactive”, the T/C [4] is reported as 71% and the CR [4] is reported as 0/8. The PR [4] was 0/8, the TFS [5] was 0/6 and the antitumor activity rating [5] was “inactive”. The T/C [5] was 94% and the CR [5] was 0/6.
For “bevacizumab: recombinant humanized monoclonal IgG1 anti-VEGF antibody; active ingredient in Avastin [reference compound]”, the CRs ([6]; 5 mg/kg QWx2, over the course of a 102-day study) was “no CRs”, the antitumor effect ([6]; IMGN853 5 mg/kg QWx2, bevacizumab 5 mg/kg QWx2, alone or combined) was “prolonged growth control” and the “tumor microvessels, CD31 immunohistochemical staining” value [7] was “decreased in size and showed loss of luminal integrity”. The T/C [8] was 31%, the TFS [8] was 0/6 and the antitumor activity rating [8] was “active”. For the same compound, the CR ([8]; responders/animals) was 0/6, the T/C [9] was 37% and the antitumor activity rating [9] was “active”. For the same compound, the “tumor free survivors (TFS)” value [9] was 0/6, the CR ([9]; responders/animals) was 0/6 and the antitumor activity rating [4] was “highly active”. The T/C [4] was 6%, the CR [4] was 0/8 and the PR [4] was 0/8. The TFS [5] was 0/8, the antitumor activity rating [5] was “active” and the T/C [5] was 22%. For the same compound, the CR [5] was 0/8, the T/C [10, 15] was 22% and the TFS [10, 15] was 0/6. For the same compound, the antitumor activity rating [10, 15] was “active”, the CR [10, 16] was 0/6 and the PR [10, 16] was 0/6. For the same compound, the body weight loss ([10]; bevacizumab 5 mg/kg monotherapy, Day 49 post-inoculation) was 9%, the antitumor effect [11] was “Split-dosing had no effect” and the T/C [12] was 51%. For the same compound, the TFS [12] was 0/4, the antitumor activity rating [12] was “inactive” and the CR ([12]; responders/animals) was 0/4.
In the case of paclitaxel+carboplatin, the T/C [13] is reported as 45%, the TFS [13] is reported as 0/6 and the antitumor activity rating [13] is reported as “inactive”. For the same compound, the “body weight loss (BWL) at nadir” value [13] was 11.1%, the CR ([13]; responders/animals) was 0/6 and the antitumor effect ([14]; QWx2: carboplatin 80 mg/kg i.p. with i.v. paclitaxel 10 mg/kg) was “efficacious”. For the same compound, the tolerability ([14]; QWx2: carboplatin 80 mg/kg i.p. with paclitaxel 10 mg/kg) was “well tolerated” and the “complete regressions (CR)” value ([14]; QWx2: carboplatin 80 mg/kg i.p. with paclitaxel 10 mg/kg, n=7 mice/group) was “none”.
